In data set [1] the target is T1, Toll-like receptor 2 (Homo sapiens, UniProt O60603). The data set is described as follows: Antagonist activity at human TLR2 expressed in HEK-Blue cells assessed as inhibition of Pam3CSK4-induced TLR2/TLR1 activation by measuring decrease in NFkappaB activation pretreated for 2 hrs followed by incubation with agonist for 18 hrs by SEAP assay. Format: cell-based, HEK-Blue hTLR2.

Data set [2] deals with T1, Toll-like receptor 2. The data set is described as follows: Antagonist activity at human TLR2 expressed in HEK-Blue cells assessed as inhibition of Pam2CSK4-induced TLR2/TLR6 activation by measuring decrease in NFkappaB activation pretreated for 2 hrs followed by incubation with agonist for 18 hrs by SEAP assay. Format: cell-based, HEK-Blue hTLR2.
Data set [3] in a line: Stability of the compound in simulated gastric fluid. In kind it is ADME. As to conditions: simulated gi fluid.
Data set [4] in a line: Stability of the compound in PBS buffer/EtOH. In kind it is physicochemical.

Broadly, the IC50 is the concentration needed to halve the response being measured.

T1 sequence (O60603 whole entry): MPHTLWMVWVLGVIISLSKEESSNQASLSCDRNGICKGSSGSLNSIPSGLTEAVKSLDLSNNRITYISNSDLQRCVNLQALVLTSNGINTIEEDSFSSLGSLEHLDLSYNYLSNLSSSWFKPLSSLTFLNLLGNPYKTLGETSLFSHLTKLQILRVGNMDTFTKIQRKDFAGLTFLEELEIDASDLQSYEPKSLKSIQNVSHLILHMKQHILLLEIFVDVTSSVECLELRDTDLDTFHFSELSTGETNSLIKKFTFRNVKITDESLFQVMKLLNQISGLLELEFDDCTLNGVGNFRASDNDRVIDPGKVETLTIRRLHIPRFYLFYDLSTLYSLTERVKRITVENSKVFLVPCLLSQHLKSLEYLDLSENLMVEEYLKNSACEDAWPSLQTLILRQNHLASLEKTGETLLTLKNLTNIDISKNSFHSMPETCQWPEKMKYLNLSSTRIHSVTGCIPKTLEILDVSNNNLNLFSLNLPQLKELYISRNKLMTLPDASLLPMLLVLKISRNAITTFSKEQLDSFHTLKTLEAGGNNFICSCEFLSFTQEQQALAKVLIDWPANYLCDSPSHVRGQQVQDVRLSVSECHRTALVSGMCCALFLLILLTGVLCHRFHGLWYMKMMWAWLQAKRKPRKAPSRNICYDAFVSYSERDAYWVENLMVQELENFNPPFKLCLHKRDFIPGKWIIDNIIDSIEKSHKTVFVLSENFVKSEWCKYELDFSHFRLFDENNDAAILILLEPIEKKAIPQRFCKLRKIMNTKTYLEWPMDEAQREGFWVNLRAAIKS

With `CCCCCCCCCCCCCCOCC(CNC(=O)C1(NC(=O)OCc2ccccc2)CCNCC1)OCCCCCCCCCCCCCC` (configuration not stated), the results for the half-maximal inhibitory concentration (IC50) in data set [1] and in data set [2] were 2.6 µM and more than 30 µM, respectively.

Take `CCCCCCCCCCCCCCOCC(CNC(=O)[C@H](CCCCN)NC(=O)OCC1c2ccccc2-c2ccccc21)OCCCCCCCCCCCCCC` (some centres not stated): the concentration for half-maximal inhibition (IC50) in data set [1] is 1.6 µM; in data set [2], more than 30 µM.

Turning to `CCCCCCCOCCNC(=O)[C@H](CCCCN)NCc1ccccc1`, the IC50 worked out at 22.6 µM in data set [1] and 13.7 µM in data set [2].

Regarding `CCCCCCCCCCCCCCOCC(CNC(=O)[C@@H](CCCCN)NC(=O)OCc1ccccc1)OCCCCCCCCCCCCCC` (some centres not stated), the IC50 in data set [1] was 2.3 µM; in data set [2] it was more than 30 µM.

In the case of `CCCCCCCCCCCCCCOCC(CNC(=O)CC[C@H](NC(=O)OCC1c2ccccc2-c2ccccc21)C(=O)O)OCCCCCCCCCCCCCC` (some centres not stated), the IC50 amounted to 8.7 µM in data set [1] and 13.3 µM in data set [2].

On to `CCCCCCCCCCCCCCOCC(CNC(=O)c1cccc(C2CCNCC2)c1)OCCCCCCCCCCCCCC.Cl` (configuration not stated), for which the Stabilty in data set [3] and in data set [4] was more than 1 h throughout.

For the compound `CCCCCCCCCCCCCCOCC(CNC(=O)[C@H]1CCCN1)OCCCCCCCCCCCCCC` (some centres not stated), the values for the IC50 in data set [1] and in data set [2] were 14.3 µM and more than 30 µM, respectively.

With `CCCCCCCCCCCCCCOCC(CNC(=O)[C@@H](CCCCN)NCc1ccccc1)OCCCCCCCCCCCCCC.Cl` (some centres not stated), the Stabilty in data set [3] and in data set [4] was more than 1 h each time.

Take `CCCCCCCCCCCCCCNC(=O)[C@H](CCCCN)NCc1ccccc1`: the values for the IC50 in data set [1] and in data set [2] were 14.5 µM and 11.3 µM, respectively.

On to `CCCCCCCCCCCCCCOCC(CNC(=O)[C@H](CCCCN)NCc1ccc(-c2ccccc2)cc1)OCCCCCCCCCCCCCC` (some centres not stated), for which the IC50 in data set [1] turned out to be 2.8 µM; in data set [2], 27.9 µM.

For `CCCCCCCCCCCCCCOCC(CNC(=O)C(CC1CCNCC1)NC(=O)OCC1c2ccccc2-c2ccccc21)OCCCCCCCCCCCCCC` (configuration not stated), the IC50 in data set [1] stood at 1.8 µM; in data set [2], 16.7 µM.

Consider `CCCCC/C=C\CCCCCCCOCC(CNC(=O)c1cccc(C2CCNCC2)c1)OCCCCCCC/C=C\CCCCC` (configuration not stated), for which the results for the IC50 in data set [1] and in data set [2] were 18.5 µM and 16.9 µM, respectively.

With `CCCCCCCCCCCCCCOCC(CNC(=O)CCCCCN)OCCCCCCCCCCCCCC` (configuration not stated), the IC50 in data set [1] was more than 20 µM; in data set [2], more than 30 µM.

For the compound `CCCCCCCCCCCCCCOCC(CNC(=O)[C@H](CCCCN)NCc1ccc(F)cc1)OCCCCCCCCCCCCCC` (some centres not stated), the IC50 was 2.9 µM in data set [1] and more than 30 µM in data set [2].

For `CCCCCCCOC(CNC(=O)[C@H](CCCCN)NCc1ccccc1)COC` (some centres not stated), the IC50 in data set [1] and in data set [2] was more than 30 µM throughout.

As for `CCCCC/C=C\C/C=C\CCCCCCCCOCC(CNC(=O)c1cccc(C2CCNCC2)c1)OCCCCCCCC/C=C\C/C=C\CCCCC` (configuration not stated), the IC50 amounted to 3.3 µM in data set [1] and 16.1 µM in data set [2].

Source of the values: ChEMBL document CHEMBL4819038, “Structure based design and synthesis of novel Toll-like Receptor 2 (TLR 2) lipid antagonists” (Bioorg Med Chem Lett, 2021).
